From ChEMBL document CHEMBL5241069, “A key review on oxadiazole analogs as potential methicillin-resistant Staphylococcus aureus (MRSA) activity: Structure-activity relationship studies” (Eur J Med Chem, 2021)
Converted amounts (≈) assume the structure as drawn.

Legend:
Staphylococcus aureus [1] = assay: Antibacterial activity against methicillin resistant Staphylococcus aureus assessed as inhibition of bacterial growth by broth dilution technique; type: functional
Staphylococcus aureus [2] = assay: Antibacterial activity against methicillin resistant Staphylococcus aureus assessed as inhibition zone by disc diffusion method; type: functional
Staphylococcus aureus [3] = assay: Antibiofilm activity against methicillin resistant Staphylococcus aureus ATCC 43866 assessed as inhibition of biofilm formation incubated for 18 to 24 hrs by tissue culture plate method; type: functional; settings: time 18-24 hrs
Staphylococcus aureus [4] = assay: Antibacterial activity against methicillin resistant Staphylococcus aureus 128 assessed as inhibition of bacterial growth; type: functional
Staphylococcus aureus [5] = assay: Antibacterial activity against methicillin resistant Staphylococcus aureus 42 assessed as inhibition of bacterial growth; type: functional
Staphylococcus aureus [6] = assay: Antibacterial activity against methicillin resistant Staphylococcus aureus 747 assessed as inhibition of bacterial growth; type: functional
Staphylococcus aureus [7] = assay: Antibacterial activity against methicillin resistant Staphylococcus aureus 181 assessed as inhibition of bacterial growth; type: functional
Staphylococcus aureus [8] = assay: Antibacterial activity methicillin resistant Staphylococcus aureus 2658 RCMB assessed as inhibition of bacterial growth by broth microdilution method; type: functional
Staphylococcus aureus [9] = assay: microbe, parasite or virus in culture; settings: 032
Description: Antibacterial activity against methicillin resistant Staphylococcus aureus 032 assessed as inhibition of bacterial growth by CLSI protocol based serial dilution method

Staphylococcus aureus [10] = assay: Antimicrobial activity against methicillin resistant Staphylococcus aureus 2658 RCMB assessed as inhibition of bacterial growth incubated for 20 hrs by CLSI protocol based broth microdilution method; type: functional
Staphylococcus aureus [11] = assay: Antimicrobial activity against methicillin resistant Staphylococcus aureus 2 assessed as inhibition of bacterial growth incubated for 16 to 20 hrs by CLSI protocol based Muller-Hinton broth method; type: functional; settings: time 16-20 hrs
Staphylococcus aureus [12] = assay: Antimicrobial activity against methicillin resistant Staphylococcus aureus 3 assessed as inhibition of bacterial growth incubated for 16 to 20 hrs by CLSI protocol based Muller-Hinton broth method; type: functional; settings: time 16-20 hrs
Staphylococcus aureus [13] = assay: Antimicrobial activity against methicillin resistant Staphylococcus aureus 1 assessed as inhibition of bacterial growth incubated for 16 to 20 hrs by CLSI protocol based Muller-Hinton broth method; type: functional; settings: time 16-20 hrs

With `CCCCC/C=C/CCC(O)CCCCCCc1nnc(-c2ccco2)o1` (stereo not drawn) the MIC (Staphylococcus aureus [1]) was 12.5 µg/mL (≈ 33.4 µM) and the “inhibition zone (IZ)” value (Staphylococcus aureus [2]) was 13.2 mm.

For `Cn1c(-c2nnc(-c3ccccc3O)o2)cc(Br)c1Br`, the MIC (Staphylococcus aureus [3]) was 6.25 µg/mL (≈ 15.7 µM).

For `C=CCCCCCCCc1nnc(-c2ccccc2Cl)o1`, the MIC (Staphylococcus aureus [1]) was 12.5 µg/mL (≈ 41 µM) and the “inhibition zone (IZ)” value (Staphylococcus aureus [2]) was 14.4 mm.

Work on `CO/N=C(\C(=O)N[C@@H]1C(=O)N2C(C(=O)[O-])=C(C[N+]3(C)CCCC3)CS[C@H]12)c1csc(N)n1` yielded an MIC (Staphylococcus aureus [4]) of 20 µg/mL (≈ 41.6 µM), an MIC (Staphylococcus aureus [5]) of 36.5 µg/mL (≈ 76 µM) and an MIC (Staphylococcus aureus [6]) of 26.9 µg/mL (≈ 56 µM). The MIC (Staphylococcus aureus [7]) was 15.2 µg/mL (≈ 31.6 µM).

Molecule `Cn1c(-c2nnc(/C=C/c3ccccc3)o2)cc(Br)c1Br` has an MIC (Staphylococcus aureus [3]) of 6.25 µg/mL (≈ 15.3 µM).

Work on `Cn1c(-c2nnc(-c3ccncc3)o2)cc(Br)c1Br` yielded an MIC (Staphylococcus aureus [3]) of 3.12 µg/mL (≈ 8.14 µM).

`Cc1nc(-c2ccc(C(C)(C)C)cc2)sc1-c1nnc(NN)o1` gave an MIC (Staphylococcus aureus [8]) of 6.25 µg/mL (≈ 19 µM).

`CC1(C)S[C@@H]2[C@H](NC(=O)[C@H](N)c3ccccc3)C(=O)N2[C@H]1C(=O)O` [AMPICILLIN] was tested, and the MIC (Staphylococcus aureus [9]) was > 32 µg/mL.

With `CCCCCCCC/C=C/CCCCCCc1nnc(-c2ccccc2Cl)o1` the MIC (Staphylococcus aureus [1]) was 12.5 µg/mL (≈ 31 µM) and the “inhibition zone (IZ)” value (Staphylococcus aureus [2]) was 16.6 mm.

In the case of `CCCCCCCCCCCCCCC(Br)c1nnc(-c2ccco2)o1` (stereo not drawn), the MIC (Staphylococcus aureus [1]) is reported as 12.5 µg/mL (≈ 29.4 µM) and the “inhibition zone (IZ)” value (Staphylococcus aureus [2]) is reported as 21.6 mm.

`O=c1c(Br)cnc2onc(-c3cccc(Cl)c3Cl)n12` was tested, and the MIC (Staphylococcus aureus [4]) was 90.3 µg/mL (≈ 250 µM), the MIC (Staphylococcus aureus [5]) was 86.2 µg/mL (≈ 239 µM) and the MIC (Staphylococcus aureus [6]) was ≥ 125 µg/mL. For the same molecule, the MIC (Staphylococcus aureus [7]) was ≥ 125 µg/mL.

Molecule `Cc1nc(-c2ccc3ccccc3c2)sc1-c1nnc(N2CC(O)C2)o1` has an MIC (Staphylococcus aureus [10]) of 3.9 µg/mL (≈ 10.7 µM).

`CCn1cc(C(=O)O)c(=O)c2cc(F)c(N3CCN(Cc4nnc(-c5ccc(OC)cc5)o4)CC3)cc21` gave an MIC (Staphylococcus aureus [11]) of 0.5 µg/mL (≈ 0.985 µM), an MIC (Staphylococcus aureus [12]) of 1 µg/mL (≈ 1.97 µM) and an MIC (Staphylococcus aureus [13]) of 1 µg/mL (≈ 1.97 µM).

In the case of `Cc1ccc2occ(/C=C(/c3ccc([N+](=O)[O-])cc3)c3noc(C)n3)c(=O)c2c1`, the MIC (Staphylococcus aureus [9]) is reported as > 32 µg/mL.

Work on `CCn1cc(C(=O)O)c(=O)c2cc(F)c(N3CCN(Cc4nnc(-c5ccc(C#N)cc5)o4)CC3)cc21` yielded an MIC (Staphylococcus aureus [11]) of 1 µg/mL (≈ 1.99 µM), an MIC (Staphylococcus aureus [12]) of 2 µg/mL (≈ 3.98 µM) and an MIC (Staphylococcus aureus [13]) of 1 µg/mL (≈ 1.99 µM).

With `CCCC(O)C/C=C/CCCCCCc1nnc(-c2ccco2)o1` (stereo not drawn) the MIC (Staphylococcus aureus [1]) was 12.5 µg/mL (≈ 37.6 µM) and the “inhibition zone (IZ)” value (Staphylococcus aureus [2]) was 18.3 mm.

Molecule `Cn1c(-c2nnc(-c3cc(F)ccc3Cl)o2)cc(Br)c1Br` has an MIC (Staphylococcus aureus [3]) of 3.12 µg/mL (≈ 7.18 µM).

`O=c1c(F)cnc2onc(-c3ccc(Cl)cc3Cl)n12` was tested, and the MIC (Staphylococcus aureus [4]) was ≥ 125 µg/mL, the MIC (Staphylococcus aureus [5]) was 116 µg/mL (≈ 388 µM) and the MIC (Staphylococcus aureus [6]) was ≥ 125 µg/mL. For the same molecule, the MIC (Staphylococcus aureus [7]) was ≥ 125 µg/mL.

`O=c1c(F)cnc2onc(-c3cccc(F)c3F)n12` was tested, and the MIC (Staphylococcus aureus [4]) was ≥ 125 µg/mL, the MIC (Staphylococcus aureus [5]) was 115 µg/mL (≈ 429 µM) and the MIC (Staphylococcus aureus [6]) was ≥ 125 µg/mL. For the same molecule, the MIC (Staphylococcus aureus [7]) was ≥ 125 µg/mL.

For `CCCCCCCCCCCCCCC(Br)c1nnc(-c2ccccc2Cl)o1` (stereo not drawn), the MIC (Staphylococcus aureus [1]) was 12.5 µg/mL (≈ 26.6 µM) and the “inhibition zone (IZ)” value (Staphylococcus aureus [2]) was 20.5 mm.

Molecule `Cn1c(-c2nnc(Cc3ccccc3)o2)cc(Br)c1Br` has an MIC (Staphylococcus aureus [3]) of 6.25 µg/mL (≈ 15.7 µM).

`O=c1c(Br)cnc2onc(-c3ccccc3Cl)n12` was tested, and the MIC (Staphylococcus aureus [4]) was 84.4 µg/mL (≈ 258 µM), the MIC (Staphylococcus aureus [5]) was 76.4 µg/mL (≈ 234 µM) and the MIC (Staphylococcus aureus [6]) was 79.4 µg/mL (≈ 243 µM). For the same molecule, the MIC (Staphylococcus aureus [7]) was 79.4 µg/mL (≈ 243 µM).

`Cn1c(-c2nnc(-c3cc(Br)c(Br)[nH]3)o2)cc(Br)c1Br` was tested, and the MIC (Staphylococcus aureus [3]) was 1.56 µg/mL (≈ 2.94 µM).

`CCn1cc(C(=O)O)c(=O)c2cc(F)c(N3CCN(Cc4nnc(-c5cccc(C)c5)o4)CC3)cc21` showed an MIC (Staphylococcus aureus [11]) of 1 µg/mL (≈ 2.03 µM), an MIC (Staphylococcus aureus [12]) of 2 µg/mL (≈ 4.07 µM) and an MIC (Staphylococcus aureus [13]) of 1 µg/mL (≈ 2.03 µM).

In the case of `Cc1nc(/C(=C\c2coc3ccc(F)cc3c2=O)c2ccc([N+](=O)[O-])cc2)no1`, the MIC (Staphylococcus aureus [9]) is reported as > 32 µg/mL.

`CCn1cc(C(=O)O)c(=O)c2cc(F)c(N3CCN(Cc4nnc(-c5ccc(F)cc5Cl)o4)CC3)cc21` showed an MIC (Staphylococcus aureus [11]) of 1 µg/mL (≈ 1.89 µM), an MIC (Staphylococcus aureus [12]) of 1 µg/mL (≈ 1.89 µM) and an MIC (Staphylococcus aureus [13]) of 1 µg/mL (≈ 1.89 µM).

For `Cc1ccc(-c2noc3ncc(Br)c(=O)n23)cc1`, the MIC (Staphylococcus aureus [4]) was ≥ 125 µg/mL, the MIC (Staphylococcus aureus [5]) was 119 µg/mL (≈ 388 µM) and the MIC (Staphylococcus aureus [6]) was ≥ 125 µg/mL. For the same molecule, the MIC (Staphylococcus aureus [7]) was ≥ 125 µg/mL.

For `CCn1cc(C(=O)O)c(=O)c2cc(F)c(N3CCNCC3)cc21` [NORFLOXACIN], the MIC (Staphylococcus aureus [11]) was 2 µg/mL (≈ 6.26 µM), the MIC (Staphylococcus aureus [12]) was 1 µg/mL (≈ 3.13 µM) and the MIC (Staphylococcus aureus [13]) was 1 µg/mL (≈ 3.13 µM).

In the case of `Cc1nc(-c2ccc(C(C)(C)C)cc2)sc1-c1nnc(NC(=N)c2ccncc2)o1`, the MIC (Staphylococcus aureus [8]) is reported as > 50 µg/mL.

For `Cc1nc(-c2ccc3ccccc3c2)sc1-c1nnc(NC(=N)N)o1`, the MIC (Staphylococcus aureus [10]) was 1.95 µg/mL (≈ 5.56 µM).

In the case of `O=c1c(F)cnc2onc(-c3cccc(Cl)c3Cl)n12`, the MIC (Staphylococcus aureus [4]) is reported as ≥ 125 µg/mL, the MIC (Staphylococcus aureus [5]) is reported as 101 µg/mL (≈ 336 µM) and the MIC (Staphylococcus aureus [6]) is reported as ≥ 125 µg/mL. The MIC (Staphylococcus aureus [7]) was ≥ 125 µg/mL.

With `O=c1c(F)cnc2onc(-c3ccc(F)cc3F)n12` the MIC (Staphylococcus aureus [4]) was 87.4 µg/mL (≈ 327 µM), the MIC (Staphylococcus aureus [5]) was 96.4 µg/mL (≈ 361 µM) and the MIC (Staphylococcus aureus [6]) was ≥ 125 µg/mL. For the same molecule, the MIC (Staphylococcus aureus [7]) was 100 µg/mL (≈ 375 µM).

In the case of `O=c1c(F)cnc2onc(-c3c(F)cccc3F)n12`, the MIC (Staphylococcus aureus [4]) is reported as ≥ 125 µg/mL, the MIC (Staphylococcus aureus [5]) is reported as 122 µg/mL (≈ 458 µM) and the MIC (Staphylococcus aureus [6]) is reported as ≥ 125 µg/mL. The MIC (Staphylococcus aureus [7]) was 120 µg/mL (≈ 447 µM).

`Cc1nc(/C(=C\c2coc3ccc(Cl)cc3c2=O)c2ccc([N+](=O)[O-])cc2)no1` was tested, and the MIC (Staphylococcus aureus [9]) was > 32 µg/mL.

With `O=c1c(Br)cnc2onc(-c3ccccc3)n12` the MIC (Staphylococcus aureus [4]) was ≥ 125 µg/mL, the MIC (Staphylococcus aureus [5]) was 123 µg/mL (≈ 422 µM) and the MIC (Staphylococcus aureus [6]) was ≥ 125 µg/mL. For the same molecule, the MIC (Staphylococcus aureus [7]) was ≥ 125 µg/mL.

In the case of `CCCCCCCC/C=C/CCCCCCc1nnc(-c2ccco2)o1`, the MIC (Staphylococcus aureus [1]) is reported as 12.5 µg/mL (≈ 34.9 µM) and the “inhibition zone (IZ)” value (Staphylococcus aureus [2]) is reported as 20.8 mm.
